Results taken from ChEMBL document CHEMBL1149107, “Structure-activity relationships of potent, selective inhibitors of neuronal nitric oxide synthase based on the 6-phenyl-2-aminopyridine structure” (J Med Chem, 2004).

Tests used:
Nitric oxide synthase 1 [1] = target: Nitric oxide synthase 1 (Homo sapiens, UniProt P29475); assay: In vitro inhibition of human neuronal nitric oxide synthase
Nitric oxide synthase 3 = target: T1, Nitric oxide synthase 3 (Homo sapiens, UniProt P29474); assay: In vitro inhibition of human endothelial nitric oxide synthase
T1 sequence (P29474 whole entry): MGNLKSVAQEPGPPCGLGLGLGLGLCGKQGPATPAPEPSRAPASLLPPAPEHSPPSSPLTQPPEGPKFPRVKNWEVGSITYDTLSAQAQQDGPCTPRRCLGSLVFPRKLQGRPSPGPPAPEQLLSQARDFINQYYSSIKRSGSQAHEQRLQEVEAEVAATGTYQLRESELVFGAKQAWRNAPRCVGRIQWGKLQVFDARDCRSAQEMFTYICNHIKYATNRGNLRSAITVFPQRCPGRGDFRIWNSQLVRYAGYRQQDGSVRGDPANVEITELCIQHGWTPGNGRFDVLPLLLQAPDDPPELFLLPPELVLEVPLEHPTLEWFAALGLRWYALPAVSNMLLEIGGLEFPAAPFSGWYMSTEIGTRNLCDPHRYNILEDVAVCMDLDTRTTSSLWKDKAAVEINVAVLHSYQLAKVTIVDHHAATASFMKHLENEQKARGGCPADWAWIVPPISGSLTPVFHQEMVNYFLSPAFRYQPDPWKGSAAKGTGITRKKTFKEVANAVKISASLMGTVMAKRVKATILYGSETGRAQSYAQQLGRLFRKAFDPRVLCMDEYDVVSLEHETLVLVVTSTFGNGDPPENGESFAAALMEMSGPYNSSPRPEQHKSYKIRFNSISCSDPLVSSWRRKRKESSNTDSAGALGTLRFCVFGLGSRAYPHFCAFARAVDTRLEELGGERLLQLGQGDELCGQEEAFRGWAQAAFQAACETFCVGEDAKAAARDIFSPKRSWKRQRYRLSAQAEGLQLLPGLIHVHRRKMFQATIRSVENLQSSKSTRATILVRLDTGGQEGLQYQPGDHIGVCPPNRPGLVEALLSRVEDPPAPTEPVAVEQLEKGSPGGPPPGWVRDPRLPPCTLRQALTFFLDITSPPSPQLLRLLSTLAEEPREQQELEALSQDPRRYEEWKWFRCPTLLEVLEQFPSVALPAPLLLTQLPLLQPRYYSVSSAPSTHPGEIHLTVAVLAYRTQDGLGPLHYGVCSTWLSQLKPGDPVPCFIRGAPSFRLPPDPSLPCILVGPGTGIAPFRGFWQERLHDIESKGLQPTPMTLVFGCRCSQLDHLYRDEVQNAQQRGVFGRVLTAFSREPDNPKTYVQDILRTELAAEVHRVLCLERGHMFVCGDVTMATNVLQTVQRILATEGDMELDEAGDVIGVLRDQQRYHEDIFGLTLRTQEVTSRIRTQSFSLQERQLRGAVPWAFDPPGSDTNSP

[2] = target: Nitric oxide synthase, inducible (Homo sapiens, UniProt P35228); assay: In vitro inhibition of human inducible nitric oxide synthase
Sequence of Nitric oxide synthase, inducible (P35228 whole entry): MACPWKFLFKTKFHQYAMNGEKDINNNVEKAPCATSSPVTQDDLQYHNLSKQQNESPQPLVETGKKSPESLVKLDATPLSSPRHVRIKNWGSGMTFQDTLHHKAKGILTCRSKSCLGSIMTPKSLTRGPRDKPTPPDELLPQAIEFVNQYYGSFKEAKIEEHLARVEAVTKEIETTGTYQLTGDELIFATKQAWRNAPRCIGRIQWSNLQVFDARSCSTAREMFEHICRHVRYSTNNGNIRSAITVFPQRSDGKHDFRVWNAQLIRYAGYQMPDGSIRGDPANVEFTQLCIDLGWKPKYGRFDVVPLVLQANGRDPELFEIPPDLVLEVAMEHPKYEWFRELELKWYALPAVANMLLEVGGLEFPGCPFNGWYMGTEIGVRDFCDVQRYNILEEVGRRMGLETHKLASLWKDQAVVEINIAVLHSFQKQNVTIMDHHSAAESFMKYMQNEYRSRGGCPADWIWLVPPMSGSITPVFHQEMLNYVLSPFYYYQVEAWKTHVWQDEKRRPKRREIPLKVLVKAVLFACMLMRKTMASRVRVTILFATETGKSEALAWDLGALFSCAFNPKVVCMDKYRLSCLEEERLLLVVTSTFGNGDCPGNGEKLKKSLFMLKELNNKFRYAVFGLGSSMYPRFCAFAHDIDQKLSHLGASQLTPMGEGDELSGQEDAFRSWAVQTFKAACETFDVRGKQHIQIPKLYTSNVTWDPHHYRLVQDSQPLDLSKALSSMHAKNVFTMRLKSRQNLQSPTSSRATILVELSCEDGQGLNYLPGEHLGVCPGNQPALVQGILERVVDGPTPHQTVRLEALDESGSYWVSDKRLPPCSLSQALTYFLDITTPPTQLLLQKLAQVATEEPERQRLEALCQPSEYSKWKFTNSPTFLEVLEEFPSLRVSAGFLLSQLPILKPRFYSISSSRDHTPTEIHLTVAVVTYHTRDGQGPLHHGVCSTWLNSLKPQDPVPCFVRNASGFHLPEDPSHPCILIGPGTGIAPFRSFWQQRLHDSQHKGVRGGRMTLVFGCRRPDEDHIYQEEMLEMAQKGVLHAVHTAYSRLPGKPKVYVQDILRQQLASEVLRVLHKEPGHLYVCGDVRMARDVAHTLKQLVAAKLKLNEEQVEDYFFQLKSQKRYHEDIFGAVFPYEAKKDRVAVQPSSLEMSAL

Nitric oxide synthase 1 [3] = target: Nitric oxide synthase 1 (Rattus norvegicus, UniProt P29476); assay: In vitro inhibition of rat neuronal nitric oxide synthase
Sequence of Nitric oxide synthase 1 (Rattus norvegicus, UniProt P29476) (P29476 whole entry): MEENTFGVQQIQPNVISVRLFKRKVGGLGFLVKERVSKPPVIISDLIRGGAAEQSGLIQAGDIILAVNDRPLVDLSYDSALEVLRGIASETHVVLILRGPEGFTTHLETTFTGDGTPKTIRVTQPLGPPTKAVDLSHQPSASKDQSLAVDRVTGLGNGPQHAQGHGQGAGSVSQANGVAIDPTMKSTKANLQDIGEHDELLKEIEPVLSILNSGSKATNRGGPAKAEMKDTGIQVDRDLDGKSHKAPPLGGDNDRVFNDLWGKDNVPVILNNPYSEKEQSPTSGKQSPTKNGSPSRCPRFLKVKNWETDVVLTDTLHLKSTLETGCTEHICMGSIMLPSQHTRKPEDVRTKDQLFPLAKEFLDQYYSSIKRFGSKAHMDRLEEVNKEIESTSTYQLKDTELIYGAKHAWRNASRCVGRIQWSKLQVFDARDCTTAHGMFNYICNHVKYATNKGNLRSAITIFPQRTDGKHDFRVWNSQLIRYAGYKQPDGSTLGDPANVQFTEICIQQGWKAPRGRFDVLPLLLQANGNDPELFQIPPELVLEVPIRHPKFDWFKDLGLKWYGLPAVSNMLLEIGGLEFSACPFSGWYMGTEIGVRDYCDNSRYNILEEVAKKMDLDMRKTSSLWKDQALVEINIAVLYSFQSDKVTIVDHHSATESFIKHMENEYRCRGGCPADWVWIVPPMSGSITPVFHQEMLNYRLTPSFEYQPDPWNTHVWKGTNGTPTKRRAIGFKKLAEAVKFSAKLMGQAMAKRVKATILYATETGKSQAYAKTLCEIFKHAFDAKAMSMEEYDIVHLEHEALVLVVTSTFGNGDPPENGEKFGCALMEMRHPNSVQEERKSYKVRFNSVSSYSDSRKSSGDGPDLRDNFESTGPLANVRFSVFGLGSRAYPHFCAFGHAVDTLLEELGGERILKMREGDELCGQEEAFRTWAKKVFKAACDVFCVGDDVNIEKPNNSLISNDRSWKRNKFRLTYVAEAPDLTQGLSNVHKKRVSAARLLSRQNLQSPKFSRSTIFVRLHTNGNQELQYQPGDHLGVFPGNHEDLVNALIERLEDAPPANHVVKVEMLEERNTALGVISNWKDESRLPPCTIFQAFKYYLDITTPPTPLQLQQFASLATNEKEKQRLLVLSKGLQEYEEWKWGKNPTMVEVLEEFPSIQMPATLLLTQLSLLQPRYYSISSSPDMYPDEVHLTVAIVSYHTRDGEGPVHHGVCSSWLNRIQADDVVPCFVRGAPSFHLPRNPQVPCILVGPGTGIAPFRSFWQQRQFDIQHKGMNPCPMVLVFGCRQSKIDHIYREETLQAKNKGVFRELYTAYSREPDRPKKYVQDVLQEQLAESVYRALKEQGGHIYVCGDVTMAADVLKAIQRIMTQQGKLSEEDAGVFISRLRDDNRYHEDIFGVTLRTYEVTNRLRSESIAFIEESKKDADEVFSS

Sequence of Nitric oxide synthase 1 (Homo sapiens, UniProt P29475) (P29475 whole entry): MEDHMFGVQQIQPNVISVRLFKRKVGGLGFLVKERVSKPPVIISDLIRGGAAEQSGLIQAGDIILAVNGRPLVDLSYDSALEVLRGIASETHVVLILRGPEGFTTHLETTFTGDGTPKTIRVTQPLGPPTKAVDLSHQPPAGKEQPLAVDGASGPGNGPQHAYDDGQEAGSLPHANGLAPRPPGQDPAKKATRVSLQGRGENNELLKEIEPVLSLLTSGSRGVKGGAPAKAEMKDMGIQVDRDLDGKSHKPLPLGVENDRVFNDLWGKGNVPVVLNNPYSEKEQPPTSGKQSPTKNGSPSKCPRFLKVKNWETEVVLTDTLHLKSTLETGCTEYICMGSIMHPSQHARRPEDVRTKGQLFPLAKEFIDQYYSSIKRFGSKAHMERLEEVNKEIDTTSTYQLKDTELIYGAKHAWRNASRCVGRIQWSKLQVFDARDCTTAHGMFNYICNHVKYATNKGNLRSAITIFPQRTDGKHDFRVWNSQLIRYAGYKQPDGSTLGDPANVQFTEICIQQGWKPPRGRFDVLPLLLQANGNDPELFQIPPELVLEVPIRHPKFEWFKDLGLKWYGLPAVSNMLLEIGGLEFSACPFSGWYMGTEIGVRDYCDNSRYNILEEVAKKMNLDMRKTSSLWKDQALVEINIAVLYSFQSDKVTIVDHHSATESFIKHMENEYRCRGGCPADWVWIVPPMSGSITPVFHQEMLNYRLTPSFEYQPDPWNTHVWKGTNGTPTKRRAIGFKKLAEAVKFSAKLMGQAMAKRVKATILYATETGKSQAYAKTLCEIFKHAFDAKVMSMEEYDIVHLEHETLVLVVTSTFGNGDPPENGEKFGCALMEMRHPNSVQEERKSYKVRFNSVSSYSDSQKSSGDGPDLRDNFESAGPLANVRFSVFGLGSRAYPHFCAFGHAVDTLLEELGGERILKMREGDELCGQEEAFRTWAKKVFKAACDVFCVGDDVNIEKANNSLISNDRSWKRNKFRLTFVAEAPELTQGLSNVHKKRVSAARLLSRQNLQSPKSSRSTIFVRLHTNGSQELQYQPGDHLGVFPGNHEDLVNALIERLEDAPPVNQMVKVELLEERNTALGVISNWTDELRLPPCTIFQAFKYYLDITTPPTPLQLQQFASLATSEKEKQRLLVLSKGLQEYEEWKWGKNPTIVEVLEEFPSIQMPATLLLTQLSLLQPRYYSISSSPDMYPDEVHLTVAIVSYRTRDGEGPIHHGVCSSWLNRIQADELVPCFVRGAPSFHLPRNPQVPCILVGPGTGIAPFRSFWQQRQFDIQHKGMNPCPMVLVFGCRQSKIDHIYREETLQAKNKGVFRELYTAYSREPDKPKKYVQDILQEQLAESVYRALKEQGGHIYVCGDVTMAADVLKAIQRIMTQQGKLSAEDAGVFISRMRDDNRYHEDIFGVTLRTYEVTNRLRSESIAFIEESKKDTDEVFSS

SMILES	IC50 (Nitric oxide synthase 1 [1]) [nM]	IC50 (Nitric oxide synthase 3) [nM]	IC50 [2] [nM]	IC50 (Nitric oxide synthase 1 [3]) [nM]
CN1CCN(CCOc2ccc(-c3cccc(N)n3)c3c2CCC3)CC1	123	3030	2200	82
CN(C)CCOc1ccc(-c2cccc(N)n2)c2c1CCC2	50.6	1570	592	21.8
CN(C)CCOc1ccc(-c2cccc(N)n2)c2c1CCCCC2	109	5750	2100	93
CN1CCN(CCOc2ccc(-c3cccc(N)n3)c3c2CCCC3)CC1	121	10600	1280	99.2
CN(C)CCOc1ccc(-c2cccc(N)n2)c2ccccc12	220	5790	4600	167
Nc1cccc(-c2ccc(OCC3CC4CCN3CC4)c3ccccc23)n1 (stereo unspecified)	96.3	3770	5800	88
Nc1cccc(-c2ccc(OCCN3CCCC3)c3ccccc23)n1	250	3710	1770	175
CN1CCN(CCOc2ccc(-c3cccc(N)n3)c3ccccc23)CC1	390	12000	9380	306
O=[N+]([O-])c1cccc2cn[nH]c12 [7-NITROINDAZOLE]	2500			
CN1CCC(Oc2ccc(-c3cccc(N)n3)c3ccccc23)C1 (stereo unspecified)	70.3	13000	2070	48
CN(C)CCOc1ccc(-c2cccc(N)n2)c2c1CCCC2	70.9	3530	517	34
Nc1cccc(-c2ccc(OCCN3CCCC3)c3c2CCC3)n1	117	785	450	59
CN(C)C1CCN(CCOc2ccc(-c3cccc(N)n3)c3ccccc23)CC1	203	7020	5750	195
Cc1ccnc(N)c1				40
Nc1cccc(-c2ccc(OCCN3CCCC3)c3c2CCCC3)n1	141	2210	358	80
CN(C)C1CCCCC1Oc1ccc(-c2cccc(N)n2)c2ccccc12 (stereo unspecified)	161	13000	2370	140
CN1CCCC1COc1ccc(-c2cccc(N)n2)c2ccccc12 (stereo unspecified)	112	2930	2850	80.5
CN(C)CCOc1ccc(-c2cccc(N)n2)c2c1C1CCC2C1 (stereo unspecified)	120	19000	1080	185
